Converted amounts (≈) assume the structure as drawn. Like-named read-outs stand apart in the source and are kept apart here.
How the values were obtained:
[1] = test system: KDR (VEGFR2); assay: KDR inhibition measured in HUVEC cells; format: cell-based, human; settings: from KDR IC50 data of ref McTigue et al. [2012]
[2] = ref Mikus et al. [2013]; cited from earlier work
[3] = phase II clinical trials for RA; ref Silverman et al. [2008]; cited from earlier work
[4] = format: physicochemical
[5] = test system: human kinases; format: binding; settings: 10 μmol/L single concentration screen; for 197 of 387 kinases
[6] = target: T1, Adenosine A3 receptor (Homo sapiens, UniProt P0DMS8); assay: Adenosine A3 receptor; settings: Radioligand binding Ki
T1 sequence (P0DMS8 1-318): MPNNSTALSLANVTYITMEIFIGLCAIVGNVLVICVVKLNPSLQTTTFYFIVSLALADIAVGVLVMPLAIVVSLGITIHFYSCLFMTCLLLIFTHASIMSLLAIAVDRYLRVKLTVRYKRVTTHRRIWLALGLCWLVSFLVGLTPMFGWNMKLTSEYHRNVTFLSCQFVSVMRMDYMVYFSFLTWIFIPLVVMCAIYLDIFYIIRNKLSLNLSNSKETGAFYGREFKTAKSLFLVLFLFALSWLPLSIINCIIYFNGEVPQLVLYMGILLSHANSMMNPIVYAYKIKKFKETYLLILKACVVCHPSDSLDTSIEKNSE

[7] = target: T2, Fatty acid amide hydrolase (FAAH) (Rattus norvegicus, UniProt P97612); assay: Fatty acid amide hydrolase; format: biochemical
T2 sequence (P97612 1-579): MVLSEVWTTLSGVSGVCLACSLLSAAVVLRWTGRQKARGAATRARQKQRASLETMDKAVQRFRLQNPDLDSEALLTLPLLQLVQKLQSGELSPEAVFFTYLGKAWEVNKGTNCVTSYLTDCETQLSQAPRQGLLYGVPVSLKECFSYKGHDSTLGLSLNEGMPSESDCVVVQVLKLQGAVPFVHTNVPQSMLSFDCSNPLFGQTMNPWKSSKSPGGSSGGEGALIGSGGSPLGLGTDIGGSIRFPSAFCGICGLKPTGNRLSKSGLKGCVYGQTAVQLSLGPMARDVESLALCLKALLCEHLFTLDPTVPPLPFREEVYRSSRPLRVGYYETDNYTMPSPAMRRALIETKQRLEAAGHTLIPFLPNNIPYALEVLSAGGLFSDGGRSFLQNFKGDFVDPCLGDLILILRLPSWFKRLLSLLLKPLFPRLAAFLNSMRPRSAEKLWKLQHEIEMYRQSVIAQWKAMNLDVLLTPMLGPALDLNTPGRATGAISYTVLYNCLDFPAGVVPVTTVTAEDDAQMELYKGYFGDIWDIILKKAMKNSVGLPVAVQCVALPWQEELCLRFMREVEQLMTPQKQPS

[8] = target: T3, Lipoxygenase 5-LO (Homo sapiens, UniProt P09917); assay: Lipoxygenase 5-LO; format: biochemical
T3 sequence (P09917 1-674): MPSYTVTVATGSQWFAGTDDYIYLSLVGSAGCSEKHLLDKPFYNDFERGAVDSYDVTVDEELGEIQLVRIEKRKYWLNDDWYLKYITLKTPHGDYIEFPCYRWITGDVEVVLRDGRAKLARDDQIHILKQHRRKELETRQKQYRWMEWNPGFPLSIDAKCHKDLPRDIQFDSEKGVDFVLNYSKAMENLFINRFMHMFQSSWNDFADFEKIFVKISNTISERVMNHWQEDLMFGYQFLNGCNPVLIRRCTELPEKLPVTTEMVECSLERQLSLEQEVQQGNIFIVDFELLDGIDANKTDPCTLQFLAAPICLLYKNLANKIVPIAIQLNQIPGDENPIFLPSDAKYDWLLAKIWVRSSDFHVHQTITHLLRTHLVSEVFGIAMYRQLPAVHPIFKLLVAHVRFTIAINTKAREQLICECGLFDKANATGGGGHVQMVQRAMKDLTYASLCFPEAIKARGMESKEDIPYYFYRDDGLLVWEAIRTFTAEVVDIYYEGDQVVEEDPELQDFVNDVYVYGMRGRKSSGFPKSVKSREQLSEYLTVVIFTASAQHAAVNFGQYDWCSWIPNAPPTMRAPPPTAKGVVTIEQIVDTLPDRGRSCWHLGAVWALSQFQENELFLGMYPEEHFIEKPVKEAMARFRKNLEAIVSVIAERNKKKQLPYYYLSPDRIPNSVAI

[9] = target: Cathepsin L (Homo sapiens, UniProt P07711); assay: Cathepsin L; format: biochemical
Sequence of Cathepsin L (P07711 114-333): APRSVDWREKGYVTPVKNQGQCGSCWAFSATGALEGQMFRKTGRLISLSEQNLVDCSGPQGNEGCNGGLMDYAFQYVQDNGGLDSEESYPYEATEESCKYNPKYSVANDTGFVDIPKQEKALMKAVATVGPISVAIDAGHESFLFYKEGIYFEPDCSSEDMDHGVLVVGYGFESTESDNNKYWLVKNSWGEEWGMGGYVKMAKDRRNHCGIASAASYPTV

[10] = target: Cathepsin S (Homo sapiens, UniProt P25774); assay: Cathepsin S; format: biochemical
Sequence of Cathepsin S (P25774 115-331): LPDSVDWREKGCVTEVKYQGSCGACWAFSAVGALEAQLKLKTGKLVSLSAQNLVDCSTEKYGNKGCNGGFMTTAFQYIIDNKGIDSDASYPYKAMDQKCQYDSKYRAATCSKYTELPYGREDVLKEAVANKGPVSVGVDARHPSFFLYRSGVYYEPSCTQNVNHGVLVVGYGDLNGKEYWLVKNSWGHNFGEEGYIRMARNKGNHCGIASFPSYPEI

[11] = target: Phosphodiesterase PDE5 (Homo sapiens, UniProt O76074); assay: Phosphodiesterase PDE5; format: biochemical
[12] = target: Transporter, monoamine; assay: Transporter, monoamine; format: binding; settings: Vesicular monoamine transporter (rabbit)
[13] = target: T4, UDP glucuronosyltransferase, UGT1A1 (Homo sapiens, UniProt P22309); assay: UDP glucuronosyltransferase, UGT1A1; format: biochemical
T4 sequence (P22309 26-533): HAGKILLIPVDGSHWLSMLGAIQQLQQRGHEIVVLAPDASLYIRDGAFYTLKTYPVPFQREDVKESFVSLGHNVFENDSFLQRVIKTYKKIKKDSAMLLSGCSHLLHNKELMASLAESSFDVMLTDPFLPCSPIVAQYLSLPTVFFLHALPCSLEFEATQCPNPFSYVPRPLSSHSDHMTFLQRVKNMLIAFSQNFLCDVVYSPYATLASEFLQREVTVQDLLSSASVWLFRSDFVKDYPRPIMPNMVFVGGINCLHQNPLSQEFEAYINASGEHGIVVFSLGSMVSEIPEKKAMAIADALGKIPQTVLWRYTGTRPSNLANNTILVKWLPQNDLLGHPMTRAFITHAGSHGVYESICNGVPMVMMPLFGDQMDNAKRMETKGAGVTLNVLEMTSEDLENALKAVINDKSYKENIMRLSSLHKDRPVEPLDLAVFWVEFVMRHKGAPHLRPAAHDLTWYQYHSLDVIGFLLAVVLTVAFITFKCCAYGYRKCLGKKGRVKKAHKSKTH

[14] = test system: Purified human recombinant kinases; format: biochemical; settings: median estimate of curve top showing <50% inhibition
[15] = target: T1, Adenosine A3 receptor; format: biochemical
[16] = test system: adenosine transporter; format: cell-based, human
[17] = test system: 314 diverse molecular targets; assay: Eurofins Panlabs broad in vitro panel, 10 μmol/L single concentration screen; settings: at nine of 314 targets

With COc1cc2c(Oc3ccc4[nH]c(C)cc4c3F)ncnc2cc1OCCCN1CCCC1 [cediranib] the “fold more potent at KDR than sunitinib” value [1] was about 31 fold.

For COc1ccc(C(=O)Nc2nc3ccccc3c(NCc3ccccc3)c2C#N)cc1 [SSR161421], the “effects in animal models of asthma” value [2] is given as “beneficial effects”.

For CNC(=O)[C@H]1O[C@@H](n2cnc3c(NCc4cccc(I)c4)ncnc32)[C@H](O)[C@@H]1O [CF101], the “adverse effects on blood pressure” value [3] is listed as “no adverse effects on blood pressure”.

With COc1cc(Nc2ncc(F)c(Nc3ccc4c(n3)NC(=O)C(C)(C)O4)n2)cc(OC)c1OC [R406] the solubility ([4]; solubility in DMSO, 100% DMSO) was about 140 mM (≈ 65.9 mg/mL), the solubility ([4]; solubility in phosphate-buffered saline, physiological pH) was 0.0002 mM (≈ 9.41e-05 mg/mL) and the “inhibition of the qPCR signal” value [5] was at least 80%. For the same compound, the Ki [6] was 17 nM, the Mode of action ([7]; Fatty acid amide hydrolase (rat)) was “Inhibitor” and the IC50 ([7]; Radioligand binding or enzyme activity IC50, Fatty acid amide hydrolase (rat)) was 1510 nM. For the same compound, the Mode of action ([8]; 5-Lipoxygenase (human)) was “Inhibitor”, the IC50 ([8]; Radioligand binding or enzyme activity IC50, 5-Lipoxygenase (human)) was 5500 nM and the Mode of action ([9]; Cathepsin L (human)) was “Inhibitor”. The IC50 ([9]; Radioligand binding or enzyme activity IC50, Cathepsin L (human)) was 5930 nM, the Mode of action ([10]; Cathepsin S (human)) was “Inhibitor” and the IC50 ([10]; Radioligand binding or enzyme activity IC50, Cathepsin S (human)) was 11900 nM. For the same compound, the Mode of action ([11]; Phosphodiesterase PDE5 (human)) was “Inhibitor”, the IC50 ([11]; Radioligand binding or enzyme activity IC50, Phosphodiesterase PDE5 (human)) was 308 nM and the Ki ([12]; read-out: Radioligand binding Ki) was 1630 nM. For the same compound, the IC50 ([12]; read-out: Radioligand binding or enzyme activity IC50) was 1960 nM, the IC50 ([13]; Radioligand binding or enzyme activity IC50, UDP glucuronosyltransferase UGT1A1 (human)) was 143 nM and the Mode of action ([13]; UDP glucuronosyltransferase UGT1A1 (human)) was “Inhibitor”. The “activity in the remaining 19 of 139 kinase activity assays” value [14] was “inactive”, the Mode of action ([15]; Adenosine A3 receptor (human)) was “Antagonist” and the “effect of R406 on its own on GTPγS binding” value ([15]; concentrations up to 10 μmol/L, absence of agonist) was “no effect”. The Mode of action ([16]; Adenosine transporter (human)) was “Inhibitor”, the IC50 ([16]; read-out: IC50, inhibition of adenosine uptake, U937 cells, [^3H]adenosine) was 100 nM and the inhibition [17] was over 50%.
